Source: PubChem BioAssay (NCI)
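Cells were grown in 96-well plates and exposed to each compound for 48 hours at five concentrations; endpoints were interpolated linearly between bracketing concentrations, or set to the highest concentration if not reached. At the GI50, growth is halved. TGI: total growth inhibition.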

What was measured:
Assay in all cases: NCI anticancer screen, dose series, 48 h
COLO 205 colon = tested on: COLO 205 colon
SK-MEL-28 melanoma = tested on: SK-MEL-28 melanoma
MALME-3M melanoma = tested on: MALME-3M melanoma
DU-145 prostate = tested on: DU-145 prostate
SF-295 CNS = tested on: SF-295 CNS
UACC-257 melanoma = tested on: UACC-257 melanoma
SF-539 CNS = tested on: SF-539 CNS
OVCAR-5 ovarian = tested on: OVCAR-5 ovarian
IGROV1 ovarian = tested on: IGROV1 ovarian
HCT-15 colon = tested on: HCT-15 colon
UACC-62 melanoma = tested on: UACC-62 melanoma
HOP-62 NSCLC = tested on: HOP-62 NSCLC
UO-31 renal = tested on: UO-31 renal
786-0 renal = tested on: 786-0 renal
ACHN renal = tested on: ACHN renal
HT29 colon = tested on: HT29 colon
KM12 colon = tested on: KM12 colon
HCT-116 colon = tested on: HCT-116 colon
NCI-H522 lung = tested on: NCI-H522 lung
SN12C renal = tested on: SN12C renal
HS 578T breast = tested on: HS 578T breast
SW-620 colon = tested on: SW-620 colon
OVCAR-4 ovarian = tested on: OVCAR-4 ovarian
CAKI-1 renal = tested on: CAKI-1 renal
SK-MEL-5 melanoma = tested on: SK-MEL-5 melanoma
NCI-H23 lung = tested on: NCI-H23 lung
NCI-H226 lung = tested on: NCI-H226 lung
SK-MEL-2 melanoma = tested on: SK-MEL-2 melanoma
U251 CNS = tested on: U251 CNS
SNB-19 CNS = tested on: SNB-19 CNS
TK-10 renal = tested on: TK-10 renal
CCRF-CEM leukemia = tested on: CCRF-CEM leukemia
OVCAR-8 ovarian = tested on: OVCAR-8 ovarian
EKVX NSCLC = tested on: EKVX NSCLC
PC-3 prostate = tested on: PC-3 prostate
SK-OV-3 ovarian = tested on: SK-OV-3 ovarian
SNB-75 CNS = tested on: SNB-75 CNS
LOX IMVI melanoma = tested on: LOX IMVI melanoma
SF-268 CNS = tested on: SF-268 CNS
HCC-2998 colon = tested on: HCC-2998 colon
RXF 393 renal = tested on: RXF 393 renal
MDA-MB-435 = tested on: MDA-MB-435
HOP-92 NSCLC = tested on: HOP-92 NSCLC
T-47D breast = tested on: T-47D breast
SR leukemia = tested on: SR leukemia
K-562 leukemia = tested on: K-562 leukemia
MDA-MB-231 breast = tested on: MDA-MB-231 breast
NCI/ADR-RES ovarian = tested on: NCI/ADR-RES ovarian
MOLT-4 leukemia = tested on: MOLT-4 leukemia
HL-60(TB) leukemia = tested on: HL-60(TB) leukemia
NCI-H460 lung = tested on: NCI-H460 lung
OVCAR-3 ovarian = tested on: OVCAR-3 ovarian
A549 NSCLC = tested on: A549 NSCLC
A498 renal = tested on: A498 renal
MCF7 breast = tested on: MCF7 breast

Q: How did the GI50 (COLO 205 colon) turn out when `N#C/C(=C/c1cccs1)c1cccs1` was run?
A: > 100 µM

Q: What about the TGI (COLO 205 colon) of the same compound?
A: > 100 µM

Q: What about the GI50 (SK-MEL-28 melanoma) of the same compound?
A: > 100 µM

Q: What about the TGI (SK-MEL-28 melanoma) of the same compound?
A: > 100 µM

Q: What about the GI50 (MALME-3M melanoma) of the same compound?
A: > 100 µM

Q: What about the TGI (MALME-3M melanoma) of the same compound?
A: > 100 µM

Q: What about the GI50 (DU-145 prostate) of the same compound?
A: > 100 µM

Q: What about the TGI (DU-145 prostate) of the same compound?
A: > 100 µM

Q: What about the GI50 (SF-295 CNS) of the same compound?
A: > 100 µM

Q: And the TGI (SF-295 CNS)?
A: > 100 µM

Q: And the GI50 (UACC-257 melanoma)?
A: > 100 µM

Q: What about the TGI (UACC-257 melanoma) of the same compound?
A: > 100 µM

Q: What about the GI50 (SF-539 CNS) of the same compound?
A: > 100 µM

Q: What about the TGI (SF-539 CNS) of the same compound?
A: > 100 µM

Q: What about the GI50 (OVCAR-5 ovarian) of the same compound?
A: > 100 µM

Q: And the TGI (OVCAR-5 ovarian)?
A: > 100 µM

Q: And the GI50 (IGROV1 ovarian)?
A: > 100 µM

Q: What about the TGI (IGROV1 ovarian) of the same compound?
A: > 100 µM

Q: And the GI50 (HCT-15 colon)?
A: > 100 µM

Q: And the TGI (HCT-15 colon)?
A: > 100 µM

Q: And the GI50 (UACC-62 melanoma)?
A: > 100 µM

Q: And the TGI (UACC-62 melanoma)?
A: > 100 µM

Q: And the GI50 (HOP-62 NSCLC)?
A: > 100 µM

Q: And the TGI (HOP-62 NSCLC)?
A: > 100 µM

Q: And the GI50 (UO-31 renal)?
A: > 100 µM

Q: And the TGI (UO-31 renal)?
A: > 100 µM

Q: And the GI50 (786-0 renal)?
A: > 100 µM

Q: What about the TGI (786-0 renal) of the same compound?
A: > 100 µM

Q: What about the GI50 (ACHN renal) of the same compound?
A: > 100 µM

Q: And the TGI (ACHN renal)?
A: > 100 µM

Q: And the GI50 (HT29 colon)?
A: > 100 µM

Q: What about the TGI (HT29 colon) of the same compound?
A: > 100 µM

Q: And the GI50 (KM12 colon)?
A: > 100 µM

Q: And the TGI (KM12 colon)?
A: > 100 µM

Q: And the GI50 (HCT-116 colon)?
A: > 100 µM

Q: And the TGI (HCT-116 colon)?
A: > 100 µM

Q: What about the GI50 (NCI-H522 lung) of the same compound?
A: > 100 µM

Q: What about the TGI (NCI-H522 lung) of the same compound?
A: > 100 µM

Q: What about the GI50 (SN12C renal) of the same compound?
A: > 100 µM

Q: What about the TGI (SN12C renal) of the same compound?
A: > 100 µM

Q: What about the GI50 (HS 578T breast) of the same compound?
A: 99.3 µM

Q: What about the TGI (HS 578T breast) of the same compound?
A: > 100 µM

Q: And the GI50 (SW-620 colon)?
A: > 100 µM

Q: And the TGI (SW-620 colon)?
A: > 100 µM

Q: And the GI50 (OVCAR-4 ovarian)?
A: > 100 µM

Q: And the TGI (OVCAR-4 ovarian)?
A: > 100 µM

Q: What about the GI50 (CAKI-1 renal) of the same compound?
A: > 100 µM

Q: What about the TGI (CAKI-1 renal) of the same compound?
A: > 100 µM

Q: And the GI50 (SK-MEL-5 melanoma)?
A: > 100 µM

Q: What about the TGI (SK-MEL-5 melanoma) of the same compound?
A: > 100 µM

Q: And the GI50 (NCI-H23 lung)?
A: > 100 µM

Q: And the TGI (NCI-H23 lung)?
A: > 100 µM

Q: What about the GI50 (NCI-H226 lung) of the same compound?
A: > 100 µM

Q: And the TGI (NCI-H226 lung)?
A: > 100 µM

Q: What about the GI50 (SK-MEL-2 melanoma) of the same compound?
A: > 100 µM

Q: And the TGI (SK-MEL-2 melanoma)?
A: > 100 µM

Q: What about the GI50 (U251 CNS) of the same compound?
A: > 100 µM

Q: And the TGI (U251 CNS)?
A: > 100 µM

Q: And the GI50 (SNB-19 CNS)?
A: > 100 µM

Q: What about the TGI (SNB-19 CNS) of the same compound?
A: > 100 µM

Q: What about the GI50 (TK-10 renal) of the same compound?
A: > 100 µM

Q: And the TGI (TK-10 renal)?
A: > 100 µM

Q: And the GI50 (CCRF-CEM leukemia)?
A: > 100 µM

Q: What about the TGI (CCRF-CEM leukemia) of the same compound?
A: > 100 µM

Q: And the GI50 (OVCAR-8 ovarian)?
A: > 100 µM

Q: What about the TGI (OVCAR-8 ovarian) of the same compound?
A: > 100 µM

Q: What about the GI50 (EKVX NSCLC) of the same compound?
A: > 100 µM

Q: And the TGI (EKVX NSCLC)?
A: > 100 µM

Q: What about the GI50 (PC-3 prostate) of the same compound?
A: > 100 µM

Q: And the TGI (PC-3 prostate)?
A: > 100 µM

Q: What about the GI50 (SK-OV-3 ovarian) of the same compound?
A: > 100 µM

Q: What about the TGI (SK-OV-3 ovarian) of the same compound?
A: > 100 µM

Q: And the GI50 (SNB-75 CNS)?
A: > 100 µM

Q: What about the TGI (SNB-75 CNS) of the same compound?
A: > 100 µM

Q: What about the GI50 (LOX IMVI melanoma) of the same compound?
A: > 100 µM

Q: And the TGI (LOX IMVI melanoma)?
A: > 100 µM

Q: What about the GI50 (SF-268 CNS) of the same compound?
A: > 100 µM

Q: And the TGI (SF-268 CNS)?
A: > 100 µM

Q: What about the GI50 (HCC-2998 colon) of the same compound?
A: > 100 µM

Q: What about the TGI (HCC-2998 colon) of the same compound?
A: > 100 µM

Q: What about the GI50 (RXF 393 renal) of the same compound?
A: 38 µM

Q: What about the TGI (RXF 393 renal) of the same compound?
A: > 100 µM

Q: And the GI50 (MDA-MB-435)?
A: > 100 µM

Q: What about the TGI (MDA-MB-435) of the same compound?
A: > 100 µM

Q: And the GI50 (HOP-92 NSCLC)?
A: 27.8 µM

Q: And the TGI (HOP-92 NSCLC)?
A: > 100 µM

Q: And the GI50 (T-47D breast)?
A: 51.5 µM

Q: And the TGI (T-47D breast)?
A: > 100 µM

Q: What about the GI50 (SR leukemia) of the same compound?
A: > 100 µM

Q: What about the TGI (SR leukemia) of the same compound?
A: > 100 µM

Q: And the GI50 (K-562 leukemia)?
A: > 100 µM

Q: What about the TGI (K-562 leukemia) of the same compound?
A: > 100 µM

Q: What about the GI50 (MDA-MB-231 breast) of the same compound?
A: > 100 µM

Q: What about the TGI (MDA-MB-231 breast) of the same compound?
A: > 100 µM

Q: What about the GI50 (NCI/ADR-RES ovarian) of the same compound?
A: > 100 µM

Q: What about the TGI (NCI/ADR-RES ovarian) of the same compound?
A: > 100 µM

Q: What about the GI50 (MOLT-4 leukemia) of the same compound?
A: > 100 µM

Q: And the TGI (MOLT-4 leukemia)?
A: > 100 µM

Q: What about the GI50 (HL-60(TB) leukemia) of the same compound?
A: > 100 µM

Q: And the TGI (HL-60(TB) leukemia)?
A: > 100 µM

Q: And the GI50 (NCI-H460 lung)?
A: > 100 µM

Q: What about the TGI (NCI-H460 lung) of the same compound?
A: > 100 µM

Q: And the GI50 (OVCAR-3 ovarian)?
A: > 100 µM

Q: And the TGI (OVCAR-3 ovarian)?
A: > 100 µM

Q: What about the GI50 (A549 NSCLC) of the same compound?
A: > 100 µM

Q: And the TGI (A549 NSCLC)?
A: > 100 µM

Q: What about the GI50 (A498 renal) of the same compound?
A: > 100 µM

Q: What about the TGI (A498 renal) of the same compound?
A: > 100 µM

Q: What about the GI50 (MCF7 breast) of the same compound?
A: > 100 µM

Q: And the TGI (MCF7 breast)?
A: > 100 µM
